These results are taken from patent US20230190887A1, “TARGETING G3BP AGGREGATION TO PREVENT NEURODEGENERATION” (priority 2019, published 2023).

The test system of this experiment is G3BP1 and pTDP-43 particles in C9ORF72 iPS-MN axons. In words: G3BP1/pTDP-43 RNP condensates in iPS-MN axons. The experiment is classed as cell-based, human. The note with it: peptide exclusively in the axonal compartment of the MFC. From the text:
Formation of G3BP1-positive RNP condensates is strongly associated with repressed RNA translation, see Sahoo, P. K. et al. A Ca^2+ dependent switch activates axonal casein kinase 2α translation and drives G3BP1 granule disassembly for axon regeneration. Curr. Biol. 30, 4882-4895.e6 (2020), and altered mRNA transport, see Liao, Y. C. et al. RNA granules hitchhike on lysosomes for long-distance transport, using Annexin All as a molecular tether. Cell 179, 147-164.e20 (2019), leading to reduced protein synthesis, see Sahoo, P. K. et al. Axonal G3BP1 stress granule protein limits axonal mRNA translation and nerve regeneration. Nat. Commun. 9, 1-14 (2018). […] By quantifying OPP puncta density within in vitro NMJs, we identified robust protein synthesis within control co-cultures, while protein synthesis in TDPΔNLS NMJs was severely impaired (FIG. 19 3k-l). […] Unpaired-t-test, two-sided ****p<0.0001. c Images and d-f quantification of NFH, pTDP-43 and G3BP1 and their colocalization in C9ORF72 iPS-MN axons either treated or not with G3BP1 peptide. Quantifications of G3BP1 particle density (d), G3BP1-pTDP-43 coloc-particle density (e) and G3BP1-pTDP-43 coloc-particle size (f) from C9ORF72 and control iPS-MN axons, either treated or not with G3BP1 peptide. […] One-way-ANOVA with Holm-Sidak correction. […], ****p<0.0001. i Images and j quantification of OPP puncta density in control or ΔNLS MN axons. […]

As for “YGNKKNNNQNNN-VVEPEPEPEPEPEPEPVSE [G3BP1 190-208 peptide]”, the G3BP1/pTDP43 particle size entry is “Reduce G3BP1/pTDP43 particle size” and the “pTDP43 RNP-condensate density” value was “Reduce”.
